Experimental data published in patent US7682602B2, “Near-infrared fluorescent contrast medium” (Konica Minolta Medical & Graphic, Inc., priority 2003, dated 2010).

Legend:
[1] = Water-solubility test of compound in normal saline solution; assay type: physicochemical; details: saline or isotonic, thermodynamic from solid, 0.5 mg in 1 ml normal saline solution, 42° C., precipitation or deposits
Protocol: In 1 ml of normal saline solution of an official grade was dissolved 0.5 mg of a dye (i.e., the cyanine compound to be tested) to make a solution.

[2] = test system: tumor tissue of breast cancer mouse implanted in BALB/c nude mouse; assay: Fluorescent contrast imaging test in tumor-implanted nude mice; assay type: in vivo; parameters: key: A: fluorescence was clearly observed in the tumor portion; B: fluorescence was also observed in the normal portion but the tumor portion was discernible; C: the normal portion and the tumor portion emitted slight fluorescence but the tumor portion was barely discernible; D: slight fluorescence was emitted overall and the tumor portion was not discernible from the normal portion; E: no fluorescence was observed; details: 3 mg/kg through lactiferous duct and adenoid lobe; whole-body fluorescent imaging 30 min., 12 hr. and 24 hr. after dosage; fluorescence of tumor portion
Protocol: Model mice having breast cancer were prepared by dosing a carcinogene, 7,12-dimethylbenz[a]anthracene (DMBA) to an acceleratedly aged mice, SAMP6/Ta type mouse as one system of a so-called SAM type to cause breast cancer. Carcinogenesis was carried out in accordance with the description of JP-A No. 2003-033125. To each of 20 SAMP6/Ta type mice, DMBA was dosed in an amount of 0.5 mg/mouse·week, a total of six times. Solid high-protein, high-calorie CA-1 (available from CLEA Japan Inc.) was fed to the mice. After completion of the 6th dose of the carcinogenic substance, the dosage was stopped until the 20th month calculated from the 1st month. Breast cancer and lung metastasis were examined in the manner of pathologic histology.
A segment (2 mm×2 mm square) of tumor tissue of the foregoing breast cancer mouse was implanted below the skin of the breast in the left chest of a BALB/c nude mouse (5 weeks old, CLEA Japan Inc.). After 10 days, when the tumor has grown up to a diameter of approximately 5 mm, the foregoing mice were subjected to the fluorescent contrast imaging test. A titanium/sapphire laser was used as an exciting light source. The test mice in a darkened box were uniformly exposed to laser light using a ring-type light guide (available from Sumita Optical Glass Inc.) so that the dispersion of exposure fell within 2%. The irradiation output was adjusted so as to be about 38 μW/cm^2 near the skin surface of the mice. Fluorescence was emitted by excitation at the absorption peak wavelength of the respective compounds and fluorescent radiation from the mice was subjected to detection and imaging by using a CCD camera (C4880, produced by Hamamatsu Photonics K.K.) together with a filter to cut reflection of incident light at the shorter wavelength side. The exposure time was adjusted in accordance with the fluorescence intensity of the respective compounds. As to the tumor portion, the image obtained by attaching a marker onto the skin surface and observing it under white light was superposed onto the image obtained by removing the marker, followed by exposure to a laser light in the dark and evaluation was made with respect to fluorescence emitted from the tumor portion.
Each of the test compounds shown in Table 1 was dissolved in a normal saline solution (at 0.5 mg/ml) and dosed to the mice through a lactiferous duct and an adenoid lobe. The dose was 3 mg/kg for the respective test compounds. […]

[3] = Discharge in vitro of cyanine compound (urethra catheter, liquid chromatograph); parameters: species or system mouse; details: sum of discharge over one week after dosage; relative value, amount in vivo after dosage = 100
Protocol: Discharge in vitro of a cyanine compound of contrast medium material was determined by fitting a urethra with a catheter and summing up the discharge over one week after the dosage, and represented by a relative value, based on the amount in vivo of the cyanine compound after the dosage thereof being 100. The discharge of a cyanine compound was determined using liquid chromatograph 2010 (available from Shimazu Corporation).

| solubility at 1 week [1] [µg/mL] | Discharge in vitro (%) [3] [%] | Structure (SMILES) | Contrast Imaging [2] |
| --- | --- | --- | --- |
| > 500 | 97.0 | CC1(C)C(/C=C/C=C/C=C/C=C2/N(CCCCS(=O)(=O)O)c3ccc4cc(S(=O)(=O)O)cc(S(=O)(=O)[O-])c4c3C2(C)C)=[N+](CCCCS(=O)(=O)O)c2ccc3cc(S(=O)(=O)O)cc(S(=O)(=O)O)c3c21 [Compound C-2] | B |
| > 500 | 99.0 | CC12CCC(/C=C/C=C/C3=CC(=C4\CCC5(C)C4=[N+](CC(O)CS(=O)(=O)O)c4ccc(S(=O)(=O)[O-])cc45)/CCC3)=C1N(CC(O)CS(=O)(=O)O)c1ccc(S(=O)(=O)O)cc12 (stereo not drawn) [Compound 37] | A |
| > 500 | 99.0 | CC12CCC(/C=C/C=C/C=C3\CCC4(C)C3=[N+](CC(O)CS(=O)(=O)[O-])c3cccnc34)=C1N(CC(O)CS(=O)(=O)O)c1cccnc12 (stereo not drawn) [Compound 12] | A |

| Structure (SMILES) | solubility at 1 week [1] [µg/mL] | Discharge in vitro (%) [3] [%] | Contrast Imaging [2] |
| --- | --- | --- | --- |
| CC1(C)C(/C=C/C=C/C=C/C=C2/N(CCCCS(=O)(=O)[O-])c3ccc4ccccc4c3C2(C)C)=[N+](CCCCS(=O)(=O)[O-])c2ccc3ccccc3c21.[Na+] [Compound C-1, indoaniline green] | < 500 | 99.0 | C |
